Experiments:
[1] = tested on: AGS cells; assay: Indomethacin-induced apoptosis of AGS gastric epithelial cells (flow cytometry); assay type: cell-based; details: FIG. 2
Description: Studies similar to those described for Examples 38 to 40 were conducted on cultured human gastric epithelial cells. This cell line, designated as AGS, was purchased from ATCC. […] Prostaglandin EP4 agonist 1 was given at four different concentrations to separate samples of the cells in a serum-free medium. One hour later, indomethacin at 400 μM was added into the culture medium in three of the samples to induce apoptosis of the AGS cells. Twenty four (24) hours after the addition of indomethacin, the cells were collected and processed for flow cytometry analysis. Ten thousand (10,000) cells were sorted for each sample, and the percentage of apoptotic cells was calculated.

[2] = tested on: IEC-18 cells; assay: Indomethacin-induced apoptosis of IEC-18 cells (flow cytometry); assay type: cell-based, rat; details: 24 h, FIG. 1
Description: Rat ileum epithelial cells identified as IEC-18, were purchased from ATCC. The cells were seeded and cultured overnight. In three (3) series of tests, each of PGE2, prostaglandin EP4 agonist 1 and prostaglandin EP4 agonist prodrug 3 was given at one or two concentrations to separate samples of the cells in a serum-free medium. One hour later, the non-steroidal anti-inflammatory drug (NSAID) indomethacin at 100 μM was added into the culture medium to induce apoptosis of the IEC-18 cells. Twenty four (24) hours after the addition of indomethacin, the cells were collected and processed for flow cytometry analysis. Ten thousand (10,000) cells were sorted for each sample, and the percentage of apoptotic cells was calculated.

[3] = tested on: gastric mucous cells; assay: BrdU immunostaining of stomach tissue sections from indomethacin-dosed mice; assay type: in vivo, mouse; details: given prior to indomethacin, FIG. 7
Description: Each of prostagiandin EP4 agonist 1 and PGE 1 analog Misoprostol was given to C57BL/6 mice at two or three concentrations. Twenty four (24) hours and 30 minutes later, the NSAID indomethacin was given at 20 mg/kg to induce stomach lesions and stomach inflammation. Twenty four (24) hours after indomethacin dosing, the mice were sacrificed and the stomach lesions were scored histopathologically and by gross lesion count.
BrdU immunostaining was performed on stomach tissue sections from mice treated with the prostaglandin EP4 agonist 1 and the PGE1 analog Misoprostol. Incorporation of BrdU label, as detected with positive BrdU immunostaining, is indicative of cell growth/regeneration. The abilities of prostaglandin EP4 agonist 1 and the PGE1 analog Misoprostol to regenerate gastric epithelial cells when given prior to indomethacin dosing were compared. The mean percentages of BrdU label incorporated cells in stomach tissue sections and the standard errors of the means from both treatments are shown in FIG. 7.

COc1ccc2c(c1)c(CC(=O)O)c(C)n2C(=O)c1ccc(Cl)cc1 [Indomethacin, indomethacin, reference compound]
apoptosis induced by indomethacin itself ([1]; indomethacin 400 μM, 24 h): about 30%

CCCCC[C@H](O)/C=C/[C@H]1[C@H](O)CC(=O)[C@@H]1C/C=C\CCCC(=O)O [PGE2, prostaglandin E2, reference compound]
reduction of indomethacin-induced apoptosis ([2]; serum-free medium, indomethacin 100 μM added 1 h after compound): about 65%

CC1(C)C(=O)[C@H](C/C=C\CCCC(=O)O)[C@@H](/C=C/C(O)CCc2sc3ccccc3c2Cl)[C@@H]1O (stereo partly drawn) [prostaglandin EP4 agonist 1]
restoration of regenerative ability of gastric mucous cells, BrdU label (in words) [3]: significant restoration | restoration of regenerative ability of gastric mucous cells injured by indomethacin (BrdU label) ([3]; maximum dose employed): about 25% | apoptosis or cell death with the agonist alone (no indomethacin) ([1]; serum-free medium): very little or substantially no apoptosis or cell death | effect on indomethacin-induced apoptosis (in words) ([2]; indomethacin 100 μM): reduced indomethacin-induced apoptosis significantly
